# Measured values taken from patent US20250170114A1, “METHODS OF TREATMENT USING T-TYPE CALCIUM CHANNEL MODULATORS” (Praxis Precision Medicines, Inc., priority 2022, published 2025).
# “Also recorded” adds a separate entry of the source.
# Key:
# [1] = Phase 2 trial: study drug plasma concentrations; type: in vivo, human
# Text: Key safety measures included clinical laboratory evaluations, 12-lead ECG, C-SSRS, and vital signs. Key efficacy assessments included the TETRAS Performance subscale, TETRAS Upper Limb using accelerometry, CGI, and PGI-C. Blood samples were obtained for the determination of study drug plasma concentrations using a validated bioanalytical method and may also be used for method development and/or metabolite characterization. In both phases, key safety measures included clinical laboratory evaluations, 12-lead ECG, C-SSRS, and vital signs. Key efficacy assessments included the TETRAS Performance subscale, TETRAS Upper Limb using accelerometry, CGI, PGI-C, TETRAS ADL Subscale, QUEST, BDI-II, and BAI. Blood samples were obtained for the determination of study drug and metabolite plasma concentrations.
# [2] = system: Harmaline induced tremor activity in male Sprague Dawley (SD) rats; experiment: Harmaline-induced tremor activity measured with a piezoelectric plate; type: in vivo, rat; settings: harmaline 30 mg/kg i.p., 1 mg/kg p.o. alone
# Procedure: This study sought to evaluate the effects of the HCl salt of the compound of Formula (I) (the “study drug”) administered alone (1 mg/kg, p.o.) or in combination with propranolol (1 and 3 mg/kg, i.p. at 20 min prior) in Harmaline (10 or 30 mg/kg, i.p.) induced tremor activity measured with a piezoelectric plate in male Sprague Dawley (SD) rats.
# Rats were fed ad lib and kept at a 12:12 light-dark cycle throughout the study. There were N=15 in each group. Harmaline and propranolol were each formulated with saline using a volume of 5 ml/kg bodyweight. Vehicle for the study drug (1 mg/kg) was 0.5% methyl cellulose/0.1% Tween-80 in water.
# 1) Rats were allowed to acclimate in standard laboratory animal facility conditions for at least 5-7 days prior to use. 2) Rat was put in a Plexiglas chamber with a piezoelectric plate attached at the bottom to transduce tremor behavior into electronic signal. […] 3) One day prior to the first testing day, a naive rat was put in the testing chamber to confirm that the spontaneous activity baseline was within the range of 3000-10000 uv, as this sensitivity level generally allows all the tremor signal to be detected with the system. […] 11) Post-harmaline effect was measured for 20 min (10-30 min). […]
# [3] = system: harmaline-induced tremor in male SD rats; experiment: Tremor assessment (tremor score 0-4) with harmaline in SD rats; type: in vivo, rat; settings: harmaline 30 mg/kg, doses of 1, 3 and 10 mg/kg, listed as compound of Formula (I)
# Text: Each of six groups of male SD rats were subjected to a tremor assessment, followed by three ADL-like measures including open field test, rotarod test, and wire grip test after receiving doses of either vehicle, Formula (I), or propranolol, followed by either saline or harmaline, as outlined below in Table 22 below. Twenty minutes after administration of harmaline or saline, the rats were subjected to a tremor assessment using the score criteria outlined in the table below.
# [4] = system: harmaline-induced motor impairment in male SD rats; experiment: Rotarod test with harmaline in SD rats; type: in vivo, rat; settings: harmaline 30 mg/kg, dose of 3 and 10 mg/kg
# Procedure: Each of six groups of male SD rats were subjected to a tremor assessment, followed by three ADL-like measures including open field test, rotarod test, and wire grip test after receiving doses of either vehicle, Formula (I), or propranolol, followed by either saline or harmaline, as outlined below in Table 22 below.
# Fifteen minutes after the open field test, the rats were subjected to a rotarod test. The speed of the rotarod increased from 10 rpms to 60 rpms within the first five minutes of the test. FIG. 9 is a bar graph showing the mean of latency to fall in the rotarod test measured in rats that were administered 30 mg/kg harmaline and also administered 10 mg/kg propranolol or 1 mg/kg, 3 mg/kg or 10 mg/kg study drug.
compound,measurement,setting,value
CC(C)(C)NC(=O)CN1CCC(CNC(=O)c2cc(F)cc(Cl)c2)CC1.Cl [Study drug],study drug plasma concentrations,"[1]; 1-hour post-dose, all participants",Measurable
same,study drug plasma concentrations,[1]; after 56 days of daily dosing and a 14-day washout period,undetectable
same,concentration at 42 day,"[1]; human, plasma, oral, 120 mg, Part B, Day 42, steady-state",379 ng/mL
same,concentration at 56 day,"[1]; human, plasma, oral, Part B, Day 56",344 ng/mL
same,harmaline-induced tremor (tremor power in the 8-13 Hz and 6-15 Hz bands),[2],significantly reduces
same,average tremor score vs vehicle and harmaline only,[3],significantly reduced; also recorded: significant inhibition
same,latency to fall in rotarod test vs vehicle and harmaline only,[4]; listed as Formula (I),significantly attenuated
same,latency to fall in rotarod test vs vehicle and harmaline only,[4]; listed as compound of Formula (I),significant attenuation of motor impairment
